PubChem BioAssay (NCI)
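Test compounds were applied to cells in 96-well plates for 48 hours at 5 doses. GI50 marks 50% less growth. TGI marks complete inhibition of growth.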

Key:
Test in all cases: inhibition of tumour cell growth, NCI panel, 48 h
[1] = system: HOP-62 NSCLC
[2] = system: 786-0 renal
[3] = system: HCT-116 colon
[4] = system: T-47D breast
[5] = system: OVCAR-5 ovarian
[6] = system: RXF 393 renal
[7] = system: BT-549 breast
[8] = system: COLO 205 colon
[9] = system: NCI-H522 lung
[10] = system: EKVX NSCLC
[11] = system: MDA-MB-435
[12] = system: SW-620 colon
[13] = system: SK-MEL-5 melanoma
[14] = system: LOX IMVI melanoma
[15] = system: HCC-2998 colon
[16] = system: IGROV1 ovarian
[17] = system: PC-3 prostate
[18] = system: NCI-H226 lung
[19] = system: SK-MEL-28 melanoma
[20] = system: A498 renal
[21] = system: MALME-3M melanoma
[22] = system: HS 578T breast
[23] = system: TK-10 renal
[24] = system: UACC-62 melanoma
[25] = system: NCI-H23 lung
[26] = system: MDA-MB-468 breast
[27] = system: CAKI-1 renal
[28] = system: NCI/ADR-RES ovarian
[29] = system: M14 melanoma
[30] = system: OVCAR-8 ovarian
[31] = system: SK-OV-3 ovarian
[32] = system: U251 CNS
[33] = system: A549 NSCLC
[34] = system: MCF7 breast
[35] = system: SNB-19 CNS
[36] = system: SK-MEL-2 melanoma
[37] = system: SF-539 CNS
[38] = system: DU-145 prostate
[39] = system: MDA-MB-231 breast
[40] = system: SNB-75 CNS
[41] = system: NCI-H460 lung
[42] = system: HOP-92 NSCLC
[43] = system: SN12C renal
[44] = system: UO-31 renal
[45] = system: ACHN renal
[46] = system: SF-295 CNS
[47] = system: HCT-15 colon
[48] = system: UACC-257 melanoma

`O=C(CCl)Nc1ccc(C(=O)/C=C/c2cc3ccccc3nc2Cl)cc1` was tested, and the GI50 [1] was 2070 nM, the TGI [1] was 3840 nM and the GI50 [2] was 1710 nM. It also gave a TGI [2] of 3130 nM, a GI50 [3] of 175 nM and a TGI [3] of 319 nM. For the same compound, the GI50 [4] was 1800 nM, the TGI [4] was 3950 nM and the GI50 [5] was 1800 nM. It also gave a TGI [5] of 3260 nM, a GI50 [6] of 1560 nM and a TGI [6] of 2980 nM. For the same compound, the GI50 [7] was 1210 nM, the TGI [7] was 2480 nM and the GI50 [8] was 1750 nM. For the same compound, the TGI [8] was 3230 nM, the GI50 [9] was 1550 nM and the TGI [9] was 3020 nM. It also gave a GI50 [10] of 1820 nM, a TGI [10] of 3520 nM and a GI50 [11] of 1120 nM. For the same compound, the TGI [11] was 2350 nM, the GI50 [12] was 523 nM and the TGI [12] was 1830 nM. The GI50 [13] was 1550 nM, the TGI [13] was 2930 nM and the GI50 [14] was 221 nM. It also gave a TGI [14] of 626 nM, a GI50 [15] of 1580 nM and a TGI [15] of 2960 nM. The GI50 [16] was 1580 nM, the TGI [16] was 3160 nM and the GI50 [17] was 1730 nM. For the same compound, the TGI [17] was 3470 nM, the GI50 [18] was 1900 nM and the TGI [18] was 4820 nM. It also gave a GI50 [19] of 1880 nM, a TGI [19] of 3660 nM and a GI50 [20] of 12700 nM. For the same compound, the TGI [20] was 25600 nM, the GI50 [21] was 1670 nM and the TGI [21] was 3220 nM. It also gave a GI50 [22] of 1980 nM, a TGI [22] of 5220 nM and a GI50 [23] of 1950 nM. The TGI [23] was 4580 nM, the GI50 [24] was 1530 nM and the TGI [24] was 2900 nM. The GI50 [25] was 1510 nM, the TGI [25] was 2890 nM and the GI50 [26] was 1470 nM. It also gave a TGI [26] of 2920 nM, a GI50 [27] of 1610 nM and a TGI [27] of 2980 nM. For the same compound, the GI50 [28] was 2160 nM, the TGI [28] was 4810 nM and the GI50 [29] was 1570 nM. The TGI [29] was 3040 nM, the GI50 [30] was 1890 nM and the TGI [30] was 4080 nM. For the same compound, the GI50 [31] was 3630 nM, the TGI [31] was 12100 nM and the GI50 [32] was 1110 nM. For the same compound, the TGI [32] was 2350 nM, the GI50 [33] was 1780 nM and the TGI [33] was 3480 nM. The GI50 [34] was 294 nM, the TGI [34] was 1430 nM and the GI50 [35] was 1660 nM. It also gave a TGI [35] of 3130 nM, a GI50 [36] of 2140 nM and a TGI [36] of 5670 nM. For the same compound, the GI50 [37] was 1670 nM, the TGI [37] was 3030 nM and the GI50 [38] was 1760 nM. The TGI [38] was 3170 nM, the GI50 [39] was 1690 nM and the TGI [39] was 3070 nM. It also gave a GI50 [40] of 1290 nM, a TGI [40] of 2660 nM and a GI50 [41] of 1720 nM. The TGI [41] was 3330 nM, the GI50 [42] was 1890 nM and the TGI [42] was 3830 nM. The GI50 [43] was 1540 nM, the TGI [43] was 2890 nM and the GI50 [44] was 1410 nM. It also gave a TGI [44] of 2710 nM, a GI50 [45] of 1720 nM and a TGI [45] of 3090 nM. For the same compound, the GI50 [46] was 1620 nM, the TGI [46] was 3070 nM and the GI50 [47] was 1240 nM. The TGI [47] was 2610 nM, the GI50 [48] was 1620 nM and the TGI [48] was 3230 nM.
